{
  "source": "paper PMC7074199",
  "about": "“Phytochemicals of Minthostachys diffusa Epling and Their Health-Promoting Bioactivities” (Foods, 2020)",
  "key": {"Oncopeltus fasciatus": {"test_system": "Oncopeltus fasciatus", "set-up": "method as in earlier work", "settings": "cited from earlier work"}, "[1]": {"biological_target": "T1, acetylcholinesterase (AChE) from Electrophorus electricus (Electrophorus electricus, UniProt O42275)", "T1 construct": "purchased Sigma-Aldrich (Milan, Italy) type VI-s", "T1 sequence (O42275 24-633)": "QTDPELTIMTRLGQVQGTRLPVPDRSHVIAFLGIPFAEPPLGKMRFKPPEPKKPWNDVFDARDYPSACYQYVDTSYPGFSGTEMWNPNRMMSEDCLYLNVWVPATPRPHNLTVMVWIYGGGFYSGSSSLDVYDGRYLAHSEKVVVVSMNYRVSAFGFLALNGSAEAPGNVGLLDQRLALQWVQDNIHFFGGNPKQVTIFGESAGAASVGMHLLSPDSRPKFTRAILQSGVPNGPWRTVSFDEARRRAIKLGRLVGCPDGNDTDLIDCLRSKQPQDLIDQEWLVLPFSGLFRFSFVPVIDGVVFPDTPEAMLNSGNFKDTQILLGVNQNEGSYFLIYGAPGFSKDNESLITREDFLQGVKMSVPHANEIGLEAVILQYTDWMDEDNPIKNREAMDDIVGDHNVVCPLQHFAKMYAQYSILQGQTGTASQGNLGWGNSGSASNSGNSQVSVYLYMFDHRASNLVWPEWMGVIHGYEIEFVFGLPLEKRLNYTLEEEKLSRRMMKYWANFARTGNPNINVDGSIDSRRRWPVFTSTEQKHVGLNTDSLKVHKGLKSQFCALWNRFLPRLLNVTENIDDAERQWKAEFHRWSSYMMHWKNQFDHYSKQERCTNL", "assay": "biochemical", "source_text": "(§1) The two prevalent forms of cholinesterase in a healthy brain are acetylcholinesterase (AChE) and butyrylcholinesterase (BChE). Ellman’s reaction to analyse the AChE and BChE inhibition by the samples was used as described before."}, "[2]": {"test_system": "aged as well as scopolamine-induced amnesic rats", "set-up": "method as in doi:10.31024/ajpp.2018.4.6.17", "settings": "cited from earlier work"}, "[3]": {"biological_target": "T2, butyrylcholinesterase (BChE) from equine serum (Equus caballus, UniProt P81908)", "T2 construct": "butyrylcholinesterase (BChE) from equine serum (lyophilized powder); purchased Sigma-Aldrich (Milan, Italy); host or cells: equine serum", "T2 sequence (P81908 whole entry)": "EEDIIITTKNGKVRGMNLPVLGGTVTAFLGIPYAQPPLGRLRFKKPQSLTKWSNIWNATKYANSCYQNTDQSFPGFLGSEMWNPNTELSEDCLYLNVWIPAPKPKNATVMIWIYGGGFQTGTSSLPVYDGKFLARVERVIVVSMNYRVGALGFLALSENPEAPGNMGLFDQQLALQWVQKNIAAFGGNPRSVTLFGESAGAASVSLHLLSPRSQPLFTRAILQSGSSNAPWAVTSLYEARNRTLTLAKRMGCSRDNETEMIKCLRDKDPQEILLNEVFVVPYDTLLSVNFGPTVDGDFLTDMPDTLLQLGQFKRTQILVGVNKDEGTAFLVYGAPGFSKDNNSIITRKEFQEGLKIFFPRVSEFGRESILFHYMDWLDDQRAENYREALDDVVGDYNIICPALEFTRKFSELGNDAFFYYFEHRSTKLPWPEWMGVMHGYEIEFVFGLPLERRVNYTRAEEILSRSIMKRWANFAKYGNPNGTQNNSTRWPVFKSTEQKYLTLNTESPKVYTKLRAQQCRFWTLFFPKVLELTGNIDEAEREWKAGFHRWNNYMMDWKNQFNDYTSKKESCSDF", "assay": "biochemical", "source_text": "as §1"}, "[4]": {"assay": "Nitric oxide radical scavenging assay", "settings": "concentration inhibiting 25% of radicals", "method": "All M. diffusa samples were tested for their radical scavenging activity by four different in vitro chemical assays targeted against the biological super oxide anion (O2^−) and nitric oxide (NO) radicals, and the synthetic neutral DPPH and cationic ABTS^+ radicals."}, "AChE": {"test_system": "AChE", "set-up": "method as in doi:10.1016/j.foodchem.2010.10.050", "settings": "isolated from Micromeria cilicica; cited from earlier work"}, "BChE": {"test_system": "BChE", "set-up": "method as in doi:10.1016/j.foodchem.2010.10.050", "settings": "isolated from Micromeria cilicica; cited from earlier work"}, "[5]": {"settings": "read-out: AChE IC50 (converted)"}},
  "note": "Read-outs that look alike come from different tables or passages of the source.",
  "data": [
    {"smiles": "CC(=O)O[C@H]1[C@H]2O[C@@]2(C)CC[C@H]1C(C)C", "note": "[(−)-(1S,2R,3R,4S)-1,2-epoxy-1-methyl-4-(1-methylethyl)-cyclohex-3-yl acetate]", "values": [
      {"measurement": "insecticidal activity", "setting": "Oncopeltus fasciatus", "value": "significant insecticidal activity"}
    ]},
    {"smiles": "C=C(C)[C@@H]1CC[C@]2(C(=O)O)CC[C@]3(C)[C@H](CC[C@@H]4[C@@]5(C)CC[C@H](O)C(C)(C)[C@@H]5CC[C@]43C)[C@@H]12", "note": "[betulinic acid]", "values": [
      {"measurement": "IC50", "setting": "[1]; [5]", "value": 19.7, "unit": "µM"},
      {"measurement": "effect on learning and memory", "setting": "[2]", "value": "improves learning and memory"}
    ]},
    {"smiles": "CC1(C)CC[C@]2(C(=O)O)CC[C@]3(C)C(=CC[C@@H]4[C@@]5(C)C[C@@H](O)[C@H](O)C(C)(C)[C@@H]5CC[C@]43C)[C@@H]2C1", "note": "[maslinic acid]", "values": [
      {"measurement": "IC50", "setting": "[1]", "value": 46.5, "unit": "µM"},
      {"measurement": "IC50", "setting": "[3]", "value": 10.6, "unit": "µM"}
    ]},
    {"smiles": "O=C1O[C@H]([C@@H](O)CO)C(O)=C1O", "note": "[ascorbic acid]", "values": [
      {"measurement": "NO IC25", "setting": "[4]", "value": "4780 ± 90", "unit": "µg/mL"}
    ]},
    {"smiles": "COc1ccc2c3c1O[C@H]1C[C@@H](O)C=C[C@@]31CCN(C)C2", "note": "[galantamine]", "values": [
      {"measurement": "inhibition at 60 µg/mL", "setting": "[3]; read-out: BChE inhibition", "value": "67.3 ± 2.61", "unit": "%"}
    ]},
    {"smiles": "C[C@H]1[C@H](C)CC[C@]2(C(=O)O)CC[C@]3(C)C(=CC[C@@H]4[C@@]5(C)CC[C@H](O)C(C)(C)[C@@H]5CC[C@]43C)[C@H]12", "note": "[Ursolic acid]", "values": [
      {"measurement": "IC50", "setting": "[1]; [5]", "value": "85.3 ± 5.85", "unit": "µM"},
      {"measurement": "IC50", "setting": "[3]; read-out: BChE IC50", "value": "83.5 ± 0.94", "unit": "µM"},
      {"measurement": "IC50", "setting": "AChE", "value": 93.8, "unit": "µM"},
      {"measurement": "IC50", "setting": "BChE", "value": 41.1, "unit": "µM"}
    ]}
  ]
}
